Measured values reported in patent publication US6630483B2, “Phenanthridine-N-oxides” (Altana Pharma AG, priority 2000, dated 2003).

Experiments:
PDE IV = experiment: Inhibition of PDE4 activity (method of Bauer and Schwabe, microtiter plates); format: biochemical
Excerpt: The activity test can be carried out, for example, according to the method of Bauer and Schwabe. For this, the method is adapted to microtiter plates (Naunyn-Schmiedeberg's Arch. Pharmacol. 1980, 311, 193-198). The PDE reaction takes place in the first step here. In a second step, the resulting 5′-nucleotide is cleaved by a 5′-nucloetidase of the snake venom of Crotalus atrox to the uncharged nucleoside. In the third step, the nucleoside is separated from the remaining charged substrate on ion-exchange columns. The columns are eluted directly into minivials, into which 2 ml of scintillator fluid are additionally added for counting, using 2 ml of 30 mM ammonium formate (pH 6.0).

melting point: 229 to 231 °C
Compound: COc1cc2c(cc1OC)[C@@H]1CCCC[C@@H]1[N+]([O-])=C2c1ccc(S(C)(=O)=O)cc1 [Compound 1, (−)-cis-8,9-Dimethoxy-6-(4-methanesulfonylphenyl)-1,2,3,4,4a,10b-hexahydrophenanthridine-N-oxide]
-log IC50 (PDE IV): 6.09
